Measurements taken from US20110028566A1, “COMPOSITIONS AND PRODUCTS CONTAINING CYCLOALIPHATIC DIOL ANTIMICROBIAL AGENTS AND METHODS OF USING THE COMPOSITIONS AND PRODUCTS” (EASTMAN CHEMICAL COMPANY, priority 2009, published 2011).

Experiments:
Assay in all cases: Microbial challenge testing in BPW
Type in all cases: cell-based
Escherichia coli = system: Escherichia coli
Protocol: (§1) The microorganisms used in challenge tests are given in Table 3, designated as either ATCC (American Type Culture Collection) or wild type. These wild type organisms were problematic organisms previously isolated from chemical products. In the description for each organism, the bacteria are indicated as either GN (Gram negative) or GP (Gram positive).
(§2) All of the microorganisms were grown in Tryptose Soy Broth (TSB), DIFCO™ available from Becton, Dickinson and Company, containing 1% dextrose. Aspergillus niger and Candida albicans were incubated at 22° C.±2° C. for at least 96 hours. All bacteria were incubated at 35° C.±2° C. in a humidified incubator for at least 96 hours.
(§3) The following procedure was followed to determine the amount of each challenge material (inoculum broth) required to produce a 10^8 cfu/mL challenge, which is equivalent to a final test-sample microbial concentration of 10^5 to 10^6 cfu (colony-forming units)/mL.
(§4) Using a sterile serological pipette, 1 mL of the growth from each TSB culture was transferred into tubes containing 9 mL phosphate buffer (pH 7.2) and mixed thoroughly. This process was repeated to make serial 1:10 dilutions. Then 0.1 mL of each sample and dilution was inoculated onto agar plates to produce the equivalent of a further 1:10 dilution. C. albicans and A. niger were inoculated onto SDA and bacteria were inoculated onto Plate Count Agar (PCA), DIFCO™ available from Becton, Dickinson and Company. The 0.1 mL aliquots were evenly distributed on the plates using the spread-plate technique. The spread-plate technique is performed by spreading the aliquot over the entire plate surface using a sterile spreading rod while rotating the plate with a rotary auto-plater. After the inoculum was absorbed completely, each plate was inverted and incubated (fungi at 22° C.±2° C. and bacteria at 35° C.±2° C.).
(§5) After incubation for at least 48 hours, colonies that had developed on the agar plates were counted and recorded with the corresponding dilution. If counting had to be delayed temporarily, plates were refrigerated, preferably no more than 24 hours, until they could be counted. The number of cfu/mL was determined by multiplying the count by the dilution factor for that particular plate.
(§6) Turbidity in Nepholemetric Turbidity Units (NTU) was measured for each serial dilution using the HF-Micro 100 Model Turbidimeter. For each microorganism, the plate counts were compared to the turbidity readings.
(§7) Control substrates (“broth alone”) were prepared for each microorganism separately in triplicate by adding 13.5 mL of BPW (pH 7.0) containing 1% (w/v) dextrose to each 20-mL glass tube; then adding 1.5 mL challenge material to produce a final concentration at time zero of 10^5 to 10^6 cfu/mL and a total volume of 15 mL.
(§8) Test sample substrates were prepared containing each test material (1,4-CHDM, etc) or combination of test materials at the concentrations shown in Tables 5 and 6. Sample substrates were prepared in triplicate, except those substrates containing PE or CG which were prepared in duplicate. Substrates were prepared by adding BPW containing 1% (w/v) dextrose to each 20-mL glass tube, then adding the test material in the amount appropriate to achieve the desired weight/volume percent (g/100 mL) and to obtain a total volume of BPW with dextrose and test material of 13.5 mL. Then 1.5 mL challenge material was added to produce a final concentration at time zero of 10^5 to 10^6 cfu/mL of the respective organism and a total test sample substrate volume of 15 mL.
(§9) After mixing, all challenged substrates were incubated at 35° C.±2° C. for 14 days and then at ambient room temperature.

Proteus vulgaris = system: Proteus vulgaris
Protocol: as §1, §2, §3, §4, §5, §6, §7, §8, §9

Pseudomonas aeruginosa = system: Pseudomonas aeruginosa
Protocol: as §1, §2, §3, §4, §5, §6, §7, §8, §9

Staphylococcus aureus = system: Staphylococcus aureus
Protocol: as §1, §2, §3, §4, §5, §6, §7, §8, §9

[1] = system: Staphylococcus epidermidis
Protocol: as §1, §2, §3, §4, §5, §6, §7, §8, §9

Streptococcus mutans = system: Streptococcus mutans
Protocol: as §1, §2, §3, §4, §5, §6, §7, §8, §9

With `OCC1CCCC(CO)C1` (centres unmarked) [1,3-CHDM] the “Grade code E. coli” value (Escherichia coli; 1.25%, 14 days incubation) was 4 (1001 to 10,000 colonies (thus 10,000 cfu/mL to 100,000 cfu/mL)), the “Grade code E. coli” value (Escherichia coli; 1.25%, 30 days incubation) was 4 (1001 to 10,000 colonies (thus 10,000 cfu/mL to 100,000 cfu/mL)) and the “Grade code E. coli” value (Escherichia coli; 2.5%, 3 days incubation) was 5 (More than 10,000 colonies estimated (thus >100,000 cfu/mL)). The “Grade code E. coli” value (Escherichia coli; 2.5%, 14 days incubation) was 4 (1001 to 10,000 colonies (thus 10,000 cfu/mL to 100,000 cfu/mL)), the “Grade code E. coli” value (Escherichia coli; 2.5%, 30 days incubation) was 4 (1001 to 10,000 colonies (thus 10,000 cfu/mL to 100,000 cfu/mL)) and the “Grade code P. vulqaris” value (Proteus vulgaris; 0.5%, 3 days incubation) was 5 (More than 10,000 colonies estimated (thus >100,000 cfu/mL)). For the same compound, the “Grade code P. vulqaris” value (Proteus vulgaris; 0.5%, 13 days incubation) was 5 (More than 10,000 colonies estimated (thus >100,000 cfu/mL)), the “Grade code P. vulqaris” value (Proteus vulgaris; 0.5%, 30 days incubation) was 5 (More than 10,000 colonies estimated (thus >100,000 cfu/mL)) and the “Grade code P. vulqaris” value (Proteus vulgaris; 1.25%, 3 days incubation) was 5 (More than 10,000 colonies estimated (thus >100,000 cfu/mL)). The “Grade code P. vulqaris” value (Proteus vulgaris; 1.25%, 13 days incubation) was 4 (1001 to 10,000 colonies (thus 10,000 cfu/mL to 100,000 cfu/mL)), the “Grade code P. vulqaris” value (Proteus vulgaris; 1.25%, 30 days incubation) was 4 (1001 to 10,000 colonies (thus 10,000 cfu/mL to 100,000 cfu/mL)) and the “Grade code P. aeruginosa” value (Pseudomonas aeruginosa; 0.5%, 3 days incubation) was 5 (More than 10,000 colonies estimated (thus >100,000 cfu/mL)). The “Grade code P. aeruginosa” value (Pseudomonas aeruginosa; 0.5%, 13 days incubation) was 5 (More than 10,000 colonies estimated (thus >100,000 cfu/mL)), the “Grade code P. aeruginosa” value (Pseudomonas aeruginosa; 0.5%, 30 days incubation) was 5 (More than 10,000 colonies estimated (thus >100,000 cfu/mL)) and the “Grade code P. aeruginosa” value (Pseudomonas aeruginosa; 1.25%, 3 days incubation) was 4 (1001 to 10,000 colonies (thus 10,000 cfu/mL to 100,000 cfu/mL)). For the same compound, the “Grade code P. aeruginosa” value (Pseudomonas aeruginosa; 1.25%, 13 days incubation) was 4 (1001 to 10,000 colonies (thus 10,000 cfu/mL to 100,000 cfu/mL)), the “Grade code P. aeruginosa” value (Pseudomonas aeruginosa; 1.25%, 30 days incubation) was 4 (1001 to 10,000 colonies (thus 10,000 cfu/mL to 100,000 cfu/mL)) and the “Grade code P. aeruginosa” value (Pseudomonas aeruginosa; 2.5%, 3 days incubation) was 4 (1001 to 10,000 colonies (thus 10,000 cfu/mL to 100,000 cfu/mL)). For the same compound, the “Grade code P. aeruginosa” value (Pseudomonas aeruginosa; 2.5%, 13 days incubation) was 4 (1001 to 10,000 colonies (thus 10,000 cfu/mL to 100,000 cfu/mL)), the “Grade code P. aeruginosa” value (Pseudomonas aeruginosa; 2.5%, 30 days incubation) was 4 (1001 to 10,000 colonies (thus 10,000 cfu/mL to 100,000 cfu/mL)) and the “Grade code S. aureus” value (Staphylococcus aureus; 0.5%, 3 days incubation) was 4 (1001 to 10,000 colonies (thus 10,000 cfu/mL to 100,000 cfu/mL)). For the same compound, the “Grade code S. aureus” value (Staphylococcus aureus; 0.5%, 14 days incubation) was 4 (1001 to 10,000 colonies (thus 10,000 cfu/mL to 100,000 cfu/mL)), the “Grade code S. aureus” value (Staphylococcus aureus; 0.5%, 30 days incubation) was 4 (1001 to 10,000 colonies (thus 10,000 cfu/mL to 100,000 cfu/mL)) and the “Grade code S. aureus” value (Staphylococcus aureus; 1.25%, 3 days incubation) was 4 (1001 to 10,000 colonies (thus 10,000 cfu/mL to 100,000 cfu/mL)). For the same compound, the “Grade code S. aureus” value (Staphylococcus aureus; 1.25%, 14 days incubation) was 4 (1001 to 10,000 colonies (thus 10,000 cfu/mL to 100,000 cfu/mL)), the “Grade code S. aureus” value (Staphylococcus aureus; 1.25%, 30 days incubation) was 4 (1001 to 10,000 colonies (thus 10,000 cfu/mL to 100,000 cfu/mL)) and the “Grade code S. aureus” value (Staphylococcus aureus; 2.5%, 3 days incubation) was 4 (1001 to 10,000 colonies (thus 10,000 cfu/mL to 100,000 cfu/mL)). For the same compound, the “Grade code S. aureus” value (Staphylococcus aureus; 2.5%, 14 days incubation) was 4 (1001 to 10,000 colonies (thus 10,000 cfu/mL to 100,000 cfu/mL)), the “Grade code S. aureus” value (Staphylococcus aureus; 2.5%, 30 days incubation) was 4 (1001 to 10,000 colonies (thus 10,000 cfu/mL to 100,000 cfu/mL)) and the “Grade code S. epidermidis” value ([1]; 0.5%, 3 days incubation) was 4 (1001 to 10,000 colonies (thus 10,000 cfu/mL to 100,000 cfu/mL)). For the same compound, the “Grade code S. epidermidis” value ([1]; 0.5%, 13 days incubation) was 4 (1001 to 10,000 colonies (thus 10,000 cfu/mL to 100,000 cfu/mL)), the “Grade code S. epidermidis” value ([1]; 0.5%, 30 days incubation) was 4 (1001 to 10,000 colonies (thus 10,000 cfu/mL to 100,000 cfu/mL)) and the “Grade code S. epidermidis” value ([1]; 1.25%, 3 days incubation) was 4 (1001 to 10,000 colonies (thus 10,000 cfu/mL to 100,000 cfu/mL)). For the same compound, the “Grade code S. epidermidis” value ([1]; 1.25%, 13 days incubation) was 3.7, the “Grade code S. epidermidis” value ([1]; 1.25%, 30 days incubation) was 4 (1001 to 10,000 colonies (thus 10,000 cfu/mL to 100,000 cfu/mL)) and the “Grade code S. epidermidis” value ([1]; 2.5%, 3 days incubation) was 4 (1001 to 10,000 colonies (thus 10,000 cfu/mL to 100,000 cfu/mL)). The “Grade code S. epidermidis” value ([1]; 2.5%, 13 days incubation) was 3 (101 to 1000 colonies (thus 1000 to 10,000 cfu/mL)), the “Grade code S. epidermidis” value ([1]; 2.5%, 30 days incubation) was 4 (1001 to 10,000 colonies (thus 10,000 cfu/mL to 100,000 cfu/mL)) and the “Grade code S. mutans” value (Streptococcus mutans; 0.5%, 3 days incubation) was 5 (More than 10,000 colonies estimated (thus >100,000 cfu/mL)). The “Grade code S. mutans” value (Streptococcus mutans; 0.5%, 13 days incubation) was 4 (1001 to 10,000 colonies (thus 10,000 cfu/mL to 100,000 cfu/mL)), the “Grade code S. mutans” value (Streptococcus mutans; 0.5%, 30 days incubation) was 4 (1001 to 10,000 colonies (thus 10,000 cfu/mL to 100,000 cfu/mL)) and the “Grade code S. mutans” value (Streptococcus mutans; 1.25%, 3 days incubation) was 4 (1001 to 10,000 colonies (thus 10,000 cfu/mL to 100,000 cfu/mL)). The “Grade code S. mutans” value (Streptococcus mutans; 1.25%, 13 days incubation) was 4 (1001 to 10,000 colonies (thus 10,000 cfu/mL to 100,000 cfu/mL)), the “Grade code S. mutans” value (Streptococcus mutans; 1.25%, 30 days incubation) was 4 (1001 to 10,000 colonies (thus 10,000 cfu/mL to 100,000 cfu/mL)) and the “Grade code S. mutans” value (Streptococcus mutans; 2.5%, 3 days incubation) was 4 (1001 to 10,000 colonies (thus 10,000 cfu/mL to 100,000 cfu/mL)). For the same compound, the “Grade code S. mutans” value (Streptococcus mutans; 2.5%, 13 days incubation) was 4 (1001 to 10,000 colonies (thus 10,000 cfu/mL to 100,000 cfu/mL)) and the “Grade code S. mutans” value (Streptococcus mutans; 2.5%, 30 days incubation) was 4 (1001 to 10,000 colonies (thus 10,000 cfu/mL to 100,000 cfu/mL)).
